Reference: patent publication US10766884B2 (Pfizer Inc., priority 2018, dated 2020)

Legend:
[1] = molecular target: CDK4/Cyclin D1 (Homo sapiens (Human), UniProt P11802); assay: CDK4/Cyclin D1 mobility shift assay; assay type: biochemical; conditions: activated CDK4/Cyclin D1, 3.5 mM ATP, Morrison fit; read-out: CDK4D1 Ki
Protocol: (§1) The purpose CDK4/Cyclin D1 assay is to evaluate the inhibition (% inhibition, Kiapp and Ki values) in the presence of small molecule inhibitors by using a fluorescence based microfluidic mobility shift assay. […] The mobility shift assay electrophoretically separates the fluorescently labeled peptides (substrate and phosphorylated product) following the kinase reaction. Both substrate and product are measured and the ratio of these values is used to generate % Conversion of substrate to product by the LabChip EZ Reader.
The reaction was stopped after 195 minutes by the addition of 50 μL of 30 mM EDTA. Ki determinations were made from a plot of the fractional velocity as a function of inhibitor concentration fit to the Morrison equation with the enzyme concentration as a variable.
(§2) For CDK4 and CDK6 mobility shift assays, see also Morrison, J. F. (1969) Kinetics of the reversible inhibition of enzyme-catalysed reactions by tight-binding inhibitors, Biochimica et biophysica acta 185, 269-286; and Murphy, D. J. (2004) Determination of accurate KI values for tight-binding enzyme inhibitors: an in silico study of experimental error and assay design, Analytical biochemistry 327, 61-67.

[2] = molecular target: CDK6/Cyclin D3 (Homo sapiens (Human), UniProt Q00534); assay: CDK6/Cyclin D3 mobility shift assay; assay type: biochemical; conditions: activated CDK6/Cyclin D3, 3.5 mM ATP, Morrison fit; read-out: CDK6_D3 Ki
Protocol: as §1, with “of the CDK6/Cyclin D3” for “CDK4/Cyclin D1”, “conversion” for “Conversion”
The reaction was stopped after 95 minutes by the addition of 50 μL of 30 mM EDTA. Ki determinations were made from a plot of the fractional velocity as a function of inhibitor concentration fit to the Morrison equation with the enzyme concentration as a variable.
as §2

[3] = molecular target: CDK4 (Homo sapiens (Human), UniProt P11802); assay: Phospho-Serine 795 Rb ELISA assay in JEKO-1 cells; assay type: cell-based; conditions: overnight treatment, phospho-Rb S795, read-out: CDK4 pRB S795 ELISA JEKO-1 cells IC50
Protocol: (§3) JEKO-1 or MV4-11 cells were seeded at 15,000 or 20,000 cells per well, respectively, in 100 μL growth media and allowed to incubate at 37° C. with 5% CO2 overnight. The following day, compounds were serially diluted from a 10 mM top dose for an 11-point 3-fold dilution curve in DMSO. Compounds were intermediately diluted 1:200 into growth media prior to diluting 1:5 on cells for final concentration 10 μM to 0.1 nM in 0.1% DMSO on cells. JEKO-1 and MV4-11 cells were treated were treated overnight, at 37° C. with 5% CO2. Cells were lysed in 100 μL/well CST lysis buffer on ice and transferred to pre-coated and blocked anti-phospho-Ser795 Rb ELISA plates for overnight incubation at 4° C. Plates were washed to remove residual, unbound cellular proteins and total Rb detection antibody added for 90 minutes at 37° C. Following wash to remove unbound total Rb antibody, the HRP tagged antibody was allowed to bind for 30 minutes at 37° C. Following wash to remove unbound HRP antibody, Glo Substrate Reagent was added and incubated protected from light for 5 to 10 minutes. Plates were read in luminescence mode and IC50 values calculated.

[4] = molecular target: CDK6 (Homo sapiens (Human), UniProt Q00534); assay: Phospho-Serine 795 Rb ELISA assay in MV4-11 cells; assay type: cell-based; conditions: overnight treatment, phospho-Rb S795, read-out: CDK6 pRB S795 ELISA MV4-11 cells IC50
Protocol: as §3

Sequence of CDK4 (P11802 2-303): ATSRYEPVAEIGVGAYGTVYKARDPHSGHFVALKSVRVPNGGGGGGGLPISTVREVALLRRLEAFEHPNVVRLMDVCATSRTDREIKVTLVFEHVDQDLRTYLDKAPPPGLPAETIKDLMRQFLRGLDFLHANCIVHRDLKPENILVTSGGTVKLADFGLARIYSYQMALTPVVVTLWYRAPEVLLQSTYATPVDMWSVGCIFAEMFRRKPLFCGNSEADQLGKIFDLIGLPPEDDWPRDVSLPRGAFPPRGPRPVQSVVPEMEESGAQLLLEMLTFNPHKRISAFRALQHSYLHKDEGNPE
Sequence of CDK4 (P24385 whole entry partner): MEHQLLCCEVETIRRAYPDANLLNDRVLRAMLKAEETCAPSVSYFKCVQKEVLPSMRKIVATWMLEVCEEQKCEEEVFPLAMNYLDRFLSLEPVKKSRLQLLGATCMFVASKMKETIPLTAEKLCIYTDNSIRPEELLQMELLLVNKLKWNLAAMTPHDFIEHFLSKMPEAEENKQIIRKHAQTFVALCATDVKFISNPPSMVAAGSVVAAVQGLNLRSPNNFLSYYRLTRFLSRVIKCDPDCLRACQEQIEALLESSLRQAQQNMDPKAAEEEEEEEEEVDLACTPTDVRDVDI
Sequence of CDK6/Cyclin D3 (Q00534 whole entry): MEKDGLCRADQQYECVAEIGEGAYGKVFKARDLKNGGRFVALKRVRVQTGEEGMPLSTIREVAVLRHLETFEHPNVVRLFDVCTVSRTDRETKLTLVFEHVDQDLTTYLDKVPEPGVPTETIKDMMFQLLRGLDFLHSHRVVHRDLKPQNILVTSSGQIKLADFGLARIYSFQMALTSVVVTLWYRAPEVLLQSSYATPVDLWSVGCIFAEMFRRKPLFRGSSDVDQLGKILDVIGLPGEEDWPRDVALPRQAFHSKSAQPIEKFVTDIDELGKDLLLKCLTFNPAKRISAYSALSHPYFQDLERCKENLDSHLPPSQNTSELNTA
Sequence of CDK6/Cyclin D3 (P30281 whole entry partner): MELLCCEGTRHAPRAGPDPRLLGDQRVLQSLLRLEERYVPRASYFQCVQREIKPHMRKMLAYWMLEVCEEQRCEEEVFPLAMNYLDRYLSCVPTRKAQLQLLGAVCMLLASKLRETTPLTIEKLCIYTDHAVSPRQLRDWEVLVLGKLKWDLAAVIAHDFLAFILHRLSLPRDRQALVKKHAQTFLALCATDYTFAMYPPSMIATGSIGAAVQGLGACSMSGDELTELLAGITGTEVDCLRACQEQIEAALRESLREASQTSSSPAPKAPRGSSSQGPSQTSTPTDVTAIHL
Sequence of CDK6 (Q00534 whole entry): as the sequence (Q00534 whole entry) above
Sequence of CDK6 (P30281 whole entry partner): as the sequence (P30281 whole entry partner) above
Sequence of CDK4/Cyclin D1 (P11802 whole entry): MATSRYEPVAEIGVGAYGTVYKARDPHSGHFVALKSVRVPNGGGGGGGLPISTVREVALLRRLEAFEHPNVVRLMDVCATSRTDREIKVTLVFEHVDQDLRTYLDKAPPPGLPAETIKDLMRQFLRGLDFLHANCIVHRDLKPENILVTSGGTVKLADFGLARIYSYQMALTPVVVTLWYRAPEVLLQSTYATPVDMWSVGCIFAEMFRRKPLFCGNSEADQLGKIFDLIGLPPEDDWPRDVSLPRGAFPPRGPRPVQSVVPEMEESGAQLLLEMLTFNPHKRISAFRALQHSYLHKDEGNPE
Sequence of CDK4/Cyclin D1 (P24385 whole entry partner): as the sequence (P24385 whole entry partner) above

Row | Compound | Ki [1] | Ki [2] | IC50 [3] | IC50 [4]
1 | CC(C)n1c(C(C)(O)C2CC2)nc2c(F)cc(-c3nc(N[C@@H]4CCOC[C@H]4O)ncc3Cl)cc21 (single isomer, unassigned) [Example A23] | 0.5 nM | 11.6 nM | 26.5 nM | 84.1 nM
2 | Cc1nc2ccc(-c3nc(N[C@@H]4CCN(S(C)(=O)=O)C[C@H]4O)ncc3F)cc2n1C(C)C [Example A76, (3R,4R)-4-({5-fluoro-4-[2-methyl-1-(propan-2-yl)-1H-benzimidazol-6-yl]pyrimidin-2-yl}amino)-1-(methanesulfonyl)piperidin-3-ol] |  | 6.3 nM |  | 242 nM
3 | CC(C)n1nnc2ccc(-c3nc(N[C@@H]4CCN(S(C)(=O)=O)C[C@H]4O)ncc3Cl)cc21 [Example A84, (3R,4R)-4-({5-chloro-4-[1-(propan-2-yl)-1H-benzotriazol-6-yl]pyrimidin-2-yl}amino)-1-(methanesulfonyl)piperidin-3-ol] | 6 nM | 30.3 nM |  | 
4 | Cc1nc2ncc(-c3nc(N[C@@H]4CCN(S(C)(=O)=O)C[C@H]4O)ncc3Cl)cc2n1C(C)C [Example A85, (3R,4R)-4-({5-chloro-4-[2-methyl-1-(propan-2-yl)-1H-imidazo[4,5-b]pyridin-6-yl]pyrimidin-2-yl}amino)-1-(methanesulfonyl)piperidin-3-ol] | 9.9 nM | 62.8 nM |  | 
5 | Cc1nc2ccc(-c3nc(N[C@@H]4CCN(S(C)(=O)=O)C[C@H]4O)ncc3Cl)nc2n1C(C)C [Example A86, (3R,4R)-4-({5-chloro-4-[2-methyl-3-(propan-2-yl)-3H-imidazo[4,5-b]pyridin-5-yl]pyrimidin-2-yl}amino)-1-(methanesulfonyl)piperidin-3-ol] | 4.7 nM | 23.5 nM |  | 
6 | CS(=O)(=O)N1CC[C@@H](Nc2ncc(Cl)c(-c3cc(F)c4nc(CO)n(CC(F)(F)F)c4c3)n2)[C@H](O)C1 [Example A90, (3R,4R)-4-({5-chloro-4-[4-fluoro-2-(hydroxymethyl)-1-(2,2,2-trifluoroethyl)-1H-benzimidazol-6-yl]pyrimidin-2-yl}amino)-1-(methanesulfonyl)piperidin-3-ol] | 0.2 nM | 1.1 nM |  | 
7 | CC(C)n1c([C@@H](C)O)nc2c(F)cc(-c3nc(N[C@@H]4CCN(S(C)(=O)=O)C[C@H]4O)ncc3Cl)cc21 [Example A93, (3R,4R)-4-[(5-chloro-4-{4-fluoro-2-[(1R)-1-hydroxyethyl]-1-(propan-2-yl)-1H-benzimidazol-6-yl}pyrimidin-2-yl)amino]-1-(methanesulfonyl)piperidin-3-ol] | 0.2 nM |  | 34.7 nM | 

The next lines start with the values.

Row | Ki [1] | Ki [2] | IC50 [3] | IC50 [4] | Compound
8 | 5.4 nM |  | 821 nM |  | CC(C)n1c([C@@H](C)O)nc2c(F)cc(-c3nc(N[C@@H]4CCN(S(C)(=O)=O)C[C@@H]4O)ncc3Cl)cc21 (single isomer, unassigned) [Example F11]
9 | 7.3 nM | 27.1 nM |  |  | CC(C)n1cnc2c(F)cc(-c3nc(N[C@@H]4CCN(S(C)(=O)=O)C[C@H]4O)ncc3C(F)(F)F)cc21 [Example B02, (3R,4R)-4-({4-[4-fluoro-1-(propan-2-yl)-1H-benzimidazol-6-yl]-5-(trifluoromethyl)pyrimidin-2-yl}amino)-1-(methanesulfonyl)piperidin-3-ol]
10 | 0.4 nM | 1.7 nM |  |  | CC(C)n1c([C@H](C)O)nc2c(F)cc(-c3cc(N[C@@H]4CCN(S(C)(=O)=O)C[C@H]4O)ncc3Cl)cc21 [Example D01, (3R,4R)-4-[(5-chloro-4-{4-fluoro-2-[(1S)-1-hydroxyethyl]-1-(propan-2-yl)-1H-benzimidazol-6-yl}pyridin-2-yl)amino]-1-(methanesulfonyl)piperidin-3-ol]
11 | 1 nM | 9.3 nM |  |  | CC(C)n1c([C@H](C)O)nc2c(F)cc(-c3cc(N[C@@H]4CCOC[C@H]4O)ncc3Cl)cc21 [Example D02, 1,5-anhydro-3-[(5-chloro-4-{4-fluoro-2-[(1S)-1-hydroxyethyl]-1-(propan-2-yl)-1H-benzimidazol-6-yl}pyridin-2-yl)amino]-2,3-dideoxy-D-threo-pentitol]
12 | 0.6 nM | 4.7 nM |  |  | CC(C)n1c([C@@H](C)O)nc2c(F)cc(-c3cc(N[C@@H]4CCN(S(C)(=O)=O)C[C@H]4O)ncc3Cl)cc21 [Example D03, (3R,4R)-4-[(5-chloro-4-{4-fluoro-2-[(1R)-1-hydroxyethyl]-1-(propan-2-yl)-1H-benzimidazol-6-yl}pyridin-2-yl)amino]-1-(methanesulfonyl)piperidin-3-ol]
13 | 0.5 nM |  | 41.3 nM |  | CC(O)c1nc2c(F)cc(-c3nc(N[C@@H]4CCN(S(=O)(=O)C(F)F)C[C@H]4O)ncc3Cl)cc2n1C(C)C (stereo partly drawn) [Example F10, (3R,4R)-4-({5-chloro-4-[4-flluoro-2-(1-hydroxyethyl)-1-(propan-2-yl)-1H-benzimidazol-6-yl]pyrimidin-2-yl}amino)-1-(difluoromethanesulfonyl)piperidin-3-ol]
14 | 3.6 nM | 30.8 nM |  |  | Cc1nc2c(F)cc(-c3nc(N[C@H]4CCN(S(C)(=O)=O)C[C@@H]4O)ncc3F)cc2n1C(C)C [Example F14, (3S,4S)-4-({5-fluoro-4-[4-fluoro-2-methyl-1-(propan-2-yl)-1H-benzimidazol-6-yl]pyrimidin-2-yl}amino)-1-(methanesulfonyl)piperidin-3-ol]
15 |  | 1 nM | 34.4 nM | 39.8 nM | CC(C)(C)n1cnc2c(F)cc(-c3nc(N[C@@H]4CCN(S(C)(=O)=O)C[C@H]4O)ncc3F)cc21 [Example F15, (3R,4R)-4-{[4-(1-tert-butyl-4-fluoro-1H-benzimidazol-6-yl)-5-fluoropyrimidin-2-yl]amino}-1-(methanesulfonyl)piperidin-3-ol]
16 | 0.9 nM | 10.1 nM | 31.7 nM |  | CC(C)n1cnc2c(F)cc(-c3nc(N[C@@H]4CCN(C(=O)C5COC5)C[C@H]4O)ncc3Cl)cc21 [Example F18, [(3R,4R)-4-({5-chloro-4-[4-fluoro-1-(propan-2-yl)-1H-benzimidazol-6-yl]pyrimidin-2-yl}amino)-3-hydroxypiperidin-1-yl](oxetan-3-yl)methanone]
17 | 1.5 nM | 11.8 nM |  |  | CC(C)n1cnc2c(F)cc(-c3nc(N[C@@H]4CCN(C(=O)C5(C)COC5)C[C@H]4O)ncc3Cl)cc21 [Example F19, [(3R,4R)-4-({5-chloro-4-[4-fluoro-1-(propan-2-yl)-1H-benzimidazol-6-yl]pyrimidin-2-yl}amino)-3-hydroxypiperidin-1-yl](3-methyloxetan-3-yl)methanone]
18 | 2.1 nM | 19.9 nM |  |  | CNCC(=O)N1CC[C@@H](Nc2ncc(Cl)c(-c3cc(F)c4ncn(C(C)C)c4c3)n2)[C@H](O)C1 [Example F24, 1-[(3R,4R)-4-({5-chloro-4-[4-fluoro-1-(propan-2-yl)-1H-benzimidazol-6-yl]pyrimidin-2-yl}amino)-3-hydroxypiperidin-1-yl]-2-(methylamino)ethan-1-one]
19 | 2.4 nM | 23 nM |  |  | CC(C)n1cnc2c(F)cc(-c3nc(N[C@@H]4CCN(C(=O)C[C@H](N)C(F)(F)F)C[C@H]4O)ncc3Cl)cc21 [Example F31, (3S)-3-amino-1-[(3R,4R)-4-({5-chloro-4-[4-fluoro-1-(propan-2-yl)-1H-benzimidazol-6-yl]pyrimidin-2-yl}amino)-3-hydroxypiperidin-1-yl]-4,4,4-trifluorobutan-1-one]
20 | 0.4 nM | 5.9 nM |  |  | CC(=O)c1nc2c(F)cc(-c3nc(N[C@@H]4CCN(S(C)(=O)=O)C[C@H]4O)ncc3Cl)cc2n1C(C)C [Example G01, 1-[6-(5-chloro-2-{[(3R,4R)-3-hydroxy-1-(methanesulfonyl)piperidin-4-yl]amino}pyrimidin-4-yl)-4-fluoro-1-(propan-2-yl)-1H-benzimidazol-2-yl]ethan-1-one]
